Assay results published in PubChem BioAssay AID435014 (Vanderbilt High Throughput Screening Facility, 2010).
Active and inactive are the calls of the source.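 The calls were made as follows: active = dose response that fits an S-shaped curve with fit quality R squared above 0.5; inactive = the rest.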

Each compound was assayed against G protein-activated inward rectifier potassium channel 1 (Rattus norvegicus) (UniProt P63251) (assay: alpha2C activation measured by GIRK thallium influx – cell-based, thallium flux, dose response (AID 435014)). Conditions: HEK293 alpha2C/GIRK1/2, thallium flux fluorescence.
G protein-activated inward rectifier potassium channel 1 (Rattus norvegicus), sequence (P63251 whole entry, looked up): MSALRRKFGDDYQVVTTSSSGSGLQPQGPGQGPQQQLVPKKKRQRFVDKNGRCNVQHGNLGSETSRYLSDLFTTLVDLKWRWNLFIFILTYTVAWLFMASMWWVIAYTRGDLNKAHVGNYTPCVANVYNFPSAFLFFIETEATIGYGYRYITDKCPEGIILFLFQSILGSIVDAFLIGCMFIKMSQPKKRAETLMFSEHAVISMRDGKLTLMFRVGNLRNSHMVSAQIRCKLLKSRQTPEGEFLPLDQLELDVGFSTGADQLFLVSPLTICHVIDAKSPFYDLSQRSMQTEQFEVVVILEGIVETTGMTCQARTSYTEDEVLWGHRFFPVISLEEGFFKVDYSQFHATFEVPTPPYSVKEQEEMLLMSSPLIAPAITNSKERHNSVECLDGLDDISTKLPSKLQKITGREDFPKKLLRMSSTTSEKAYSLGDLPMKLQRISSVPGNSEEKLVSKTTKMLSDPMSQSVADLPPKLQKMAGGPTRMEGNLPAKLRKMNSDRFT
With `Brc1c(NC2=NCCN2)ccc2nccnc12` the EC50 was 82 nM. Compound `Cc1c2ccncc2c(C)c2c1[nH]c1ccccc12` has an EC50 of 3080 nM. For `CN(C)c1ccc(/C=C/C(O)=C2/C(=O)N(C)C3(C)CC2c2ccccc2O3)cc1` (stereo not given), the EC50 was 1990 nM. Work on `C[C@H]1OC[C@@H](C[N+](C)(C)C)O1` yielded an EC50 of 393 nM. In the case of `CC(=O)OCC[N+](C)(C)C`, the EC50 is reported as 134 nM.

Same assay, conditions: HEK293 alpha2C/GIRK1/2, thallium flux fluorescence; at 10 µM (top of the series)
With `O=C(NCc1ccco1)c1cc2cc3ccc(Cl)cc3nc2o1` the activation was “inactive”. For `Cc1sccc1C1C(C#N)=C(N)SC(N)=C1C#N`, the activation was “inactive”. `O=S(=O)(c1ccc(S(=O)(=O)N(Cc2ccco2)Cc2ccccc2Cl)cc1)N1CCCC1` was tested, and the activation was “inactive”. With `N#Cc1ccccc1Cn1c(=O)n(Cc2ccc(C(=O)NCc3ccco3)cc2)c(=O)c2ccccc21` the activation was “inactive”. For `CSc1nc2sc3c(c2c(=O)[nH]1)CCC(C)C3` (stereo not given), the activation was “inactive”. In the case of `O=S(=O)(c1ccccc1)N(Cc1nc(-c2ccccc2)no1)C1CCCCC1`, the activation is reported as “inactive”. In the case of `CCCOc1ccc(-c2nnn(CC(=O)Nc3cccc(C(=O)OC)c3)n2)cc1`, the activation is reported as “inactive”. For `COc1cccc(-c2nc(-c3ccc(NC(=O)Cc4ccccc4OC)cc3)no2)c1`, the activation was “inactive”. With `CCN(CC)c1ccc2cc(C(=O)Nc3ccccn3)c(=O)oc2c1` the activation was “inactive”. In the case of `CC1(C)Cc2c(c(N3CCOCC3)nc3sc4c(NCc5ccco5)nnnc4c23)CS1`, the activation is reported as “inactive”. In the case of `N#CCSc1nc2c(c(=O)n1Cc1ccco1)C1(CCCC1)Cc1ccccc1-2`, the activation is reported as “inactive”. With `Cc1ccc(Cl)cc1N1CCN(C(=O)CN2C(=O)c3cccc4cccc2c34)CC1` the activation was “inactive”. In the case of `CCc1cc2c(=O)c(-c3ccc4c(c3)OCCO4)coc2cc1OC(=O)c1ccco1`, the activation is reported as “inactive”. For `N#CCc1nc(CSc2nc3ccccc3s2)cs1`, the activation was “inactive”. With `O=C(c1ccc(Cl)cc1)N1CCCCC(Sc2nnc(-c3ccc4c(c3)OCO4)o2)C1=O` (stereo not given) the activation was “inactive”. With `COc1ccc(-c2noc(-c3cc(Cl)ccc3Cl)n2)cc1OC` the activation was “inactive”. In the case of `C/C(Cl)=C/Cn1c(SCc2ccc(Cl)cc2)nc2c1c(=O)[nH]c(=O)n2C`, the activation is reported as “inactive”. For `CCCCC(=O)O[C@H]1CC[C@H]2[C@@H]3CCc4cc(O)ccc4[C@H]3CC[C@]12C`, the activation was “inactive”. In the case of `CC1(C)Cc2c(C#N)c(SCCOc3ccccc3)nc(N3CCOCC3)c2CO1`, the activation is reported as “inactive”. In the case of `COc1ccc(-c2oc3ncn4nc(COc5ccccc5)nc4c3c2-c2ccc(OC)cc2)cc1`, the activation is reported as “inactive”. In the case of `COC(=O)c1ccccc1NC(=O)c1noc2c1CC(C(C)(C)C)CC2` (stereo not given), the activation is reported as “inactive”. For `C=CCn1c(=S)[nH]c2ccccc2c1=O`, the activation was “inactive”. In the case of `COc1cccc2c1C(=O)c1c(O)c3c(c(O)c1C2=O)C[C@@](O)(C(=O)CO)C[C@@H]3O[C@H]1C[C@H](N)[C@H](O)[C@H](C)O1`, the activation is reported as “inactive”. In the case of `CCCSc1nc(N2CCOCC2)c2c(c1C#N)CCCC2`, the activation is reported as “inactive”. For `CC(=O)OC(C)C[N+](C)(C)C` (stereo not given), the activation was “inactive”. `COc1ccc(-c2noc(CCC(=O)Nc3nc4ccccc4s3)n2)cc1` was tested, and the activation was “inactive”. For `c1ccc2c(-c3nc(C4CCCCC4)no3)cc(-c3ccncc3)nc2c1`, the activation was “inactive”. In the case of `O=C(NCCSCc1ccco1)Nc1cccc(Cl)c1`, the activation is reported as “inactive”. With `O=c1c(-c2ccc3c(c2)OCCO3)c(C(F)(F)F)oc2cc(O)cc(O)c12` the activation was “inactive”. In the case of `C[C@]12CC[C@@H]3c4ccc(OC(=O)c5ccccc5)cc4CC[C@H]3[C@@H]1CC[C@@H]2O`, the activation is reported as “inactive”. In the case of `COC(=O)c1ccccc1NC(=O)c1ccc(-c2ccccc2F)o1`, the activation is reported as “inactive”. In the case of `CCOC(=O)c1sc(NC(=O)c2noc3c2CCCC3)c(C(=O)OCC)c1C`, the activation is reported as “inactive”. In the case of `Cc1c(C(=O)NC2CCCc3ccccc32)oc2ccc(S(=O)(=O)N3CCOCC3)cc12` (stereo not given), the activation is reported as “inactive”. For `CCOC(=O)CSc1nc2cc(C(=O)NCc3ccco3)ccc2c(=O)n1-c1ccc(F)cc1`, the activation was “inactive”. In the case of `CCOC(=O)c1c(-c2ccc(C)o2)csc1NC(=O)COC(=O)c1cccs1`, the activation is reported as “inactive”. For `CCSc1nnc(NC(=O)NC(CC)(C(F)(F)F)C(F)(F)F)s1`, the activation was “inactive”. With `CCOc1nc(-c2ccccc2)ccc1-c1noc(-c2ccc(OC)c(OC)c2)n1` the activation was “inactive”. With `COc1ccc2cc(CN(Cc3ccco3)C(c3nnnn3C3CCCCC3)C(C)C)c(=O)[nH]c2c1` (stereo not given) the activation was “inactive”. For `COc1ccccc1NC(=O)c1oc2ccccc2c1NC(=O)c1cc(OC)c(OC)c(OC)c1`, the activation was “inactive”. With `COCCOC(=O)c1c(C)oc2ccc(OC(=O)COc3c(F)c(F)c(F)c(F)c3F)cc12` the activation was “inactive”. For `CC(C)(C)c1cc(-c2ccco2)c(C#N)c(SCC#N)n1`, the activation was “inactive”. `COc1ccc(CN(C(=O)CSc2nnc(-c3ccccc3F)o2)c2ccc(F)cc2)cc1` was tested, and the activation was “inactive”. With `COc1cc(C(=O)Nc2cccc(-c3nc4cc(C)ccc4o3)c2)cc(OC)c1OC` the activation was “inactive”. With `COC(=O)c1ccc(-c2sc3nc(N4CCOCC4)c4c(c3c2N)CCCC4)o1` the activation was “inactive”. For `Cc1ccc(-c2cc(C(F)F)nc(N3CCC(C)CC3)n2)cc1`, the activation was “inactive”. For `Cc1ccc2c(C)nc(Nc3nc(CSc4nnnn4-c4ccccc4)cc(=O)[nH]3)nc2c1`, the activation was “inactive”. With `C=CCOC(=O)C1=C(C)NC(SCC(=O)Nc2ccc(C)c(Cl)c2)=C(C#N)C1c1ccco1` (stereo not given) the activation was “inactive”. With `CCC(=O)Oc1ccc(C(CC)C(CC)c2ccc(OC(=O)CC)cc2)cc1` (stereo not given) the activation was “inactive”. With `COc1ccc(-c2oc3ncn4nc(Cc5ccccc5)nc4c3c2-c2ccc(OC)cc2)cc1` the activation was “inactive”. For `CCOc1ccc(S(=O)(=O)N2CCN(c3ccc(C)cc3C)CC2)cc1`, the activation was “inactive”. For `N/C(=N\c1nc2ccccc2o1)NC(=O)c1ccccc1NC(=O)c1ccccc1`, the activation was “inactive”. In the case of `COc1cccc2c1C(=O)c1c(O)c3c(c(O)c1C2=O)C[C@@](O)(C(C)=O)C[C@@H]3O[C@H]1C[C@H](N)[C@H](O)[C@H](C)O1`, the activation is reported as “inactive”. `Cc1ccc(-c2nn(-c3ccccc3)cc2/C=C(\C#N)c2cccc(C#N)c2)o1` was tested, and the activation was “inactive”. For `COc1ccc(-c2nnc(SCC(=O)Nc3ccc(Cl)cc3)n2C)cc1`, the activation was “inactive”. `N#Cc1nc(COc2ccc(Br)cc2)oc1N1CCN(Cc2ccccc2)CC1` was tested, and the activation was “inactive”. In the case of `Cc1ccc(SCc2c(C#N)c3ccccc3n2C)cc1`, the activation is reported as “inactive”. `CCOc1ccc2nc(NC(=O)CSc3nc4ccccc4c(=O)n3Cc3ccco3)sc2c1` was tested, and the activation was “inactive”. In the case of `O=c1c2ccccc2sn1-c1ccc(S(=O)(=O)N2CCCCC2)cc1`, the activation is reported as “inactive”. For `COC(=O)c1c(NC(=O)c2nn(C)cc2Cl)sc2c1CCCC2`, the activation was “inactive”. For `CCOC(=O)c1ccc(NC(=O)NC(C)C2CCCO2)cc1` (stereo not given), the activation was “inactive”.
